US7125679B2, “Methods to screen peptide libraries using minicell display” (Children's Medical Center Corporation, priority 2001, dated 2006)
Each block holds one substance with its values, some of them ahead of it.

Assays:
angiogenesis = test: Anti-angiogenic activity
melanoma cell = test: Melanoma cell attachment; assay type: cell-based
alpha4 integrin = target: T1, alpha4 integrin (Homo sapiens, UniProt P13612); test: alpha4 integrin binding
T1 sequence (P13612 34-1032): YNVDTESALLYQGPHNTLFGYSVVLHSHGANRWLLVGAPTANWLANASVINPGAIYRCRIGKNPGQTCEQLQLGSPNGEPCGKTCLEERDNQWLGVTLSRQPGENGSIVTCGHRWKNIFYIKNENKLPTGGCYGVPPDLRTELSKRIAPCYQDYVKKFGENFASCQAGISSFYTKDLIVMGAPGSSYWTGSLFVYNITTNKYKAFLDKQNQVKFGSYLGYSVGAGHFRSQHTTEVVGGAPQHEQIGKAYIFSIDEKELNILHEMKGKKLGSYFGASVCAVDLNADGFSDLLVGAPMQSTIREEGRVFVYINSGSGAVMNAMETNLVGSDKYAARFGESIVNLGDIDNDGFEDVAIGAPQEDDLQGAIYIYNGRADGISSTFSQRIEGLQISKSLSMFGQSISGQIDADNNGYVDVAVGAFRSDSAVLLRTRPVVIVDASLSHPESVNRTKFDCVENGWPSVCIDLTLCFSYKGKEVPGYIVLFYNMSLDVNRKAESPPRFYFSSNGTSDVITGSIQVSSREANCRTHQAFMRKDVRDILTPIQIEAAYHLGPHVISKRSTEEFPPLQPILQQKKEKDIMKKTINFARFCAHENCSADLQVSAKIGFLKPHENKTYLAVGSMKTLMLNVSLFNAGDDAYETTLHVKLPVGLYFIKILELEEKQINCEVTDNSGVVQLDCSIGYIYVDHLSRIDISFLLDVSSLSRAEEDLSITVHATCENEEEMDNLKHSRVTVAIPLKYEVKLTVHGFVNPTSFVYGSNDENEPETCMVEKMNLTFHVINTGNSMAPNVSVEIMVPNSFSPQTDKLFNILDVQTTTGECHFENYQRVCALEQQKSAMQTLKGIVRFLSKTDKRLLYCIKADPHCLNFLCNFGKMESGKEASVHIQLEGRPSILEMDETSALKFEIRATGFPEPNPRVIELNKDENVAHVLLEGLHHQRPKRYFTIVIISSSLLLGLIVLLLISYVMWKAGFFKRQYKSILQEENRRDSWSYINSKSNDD

Endothelial cell = Endothelial cell attachment; assay type: cell-based
β3 = target: T2, β3 (Homo sapiens, UniProt P05106); test: β3 attachment; assay type: cell-based
T2 sequence (P05106 27-788): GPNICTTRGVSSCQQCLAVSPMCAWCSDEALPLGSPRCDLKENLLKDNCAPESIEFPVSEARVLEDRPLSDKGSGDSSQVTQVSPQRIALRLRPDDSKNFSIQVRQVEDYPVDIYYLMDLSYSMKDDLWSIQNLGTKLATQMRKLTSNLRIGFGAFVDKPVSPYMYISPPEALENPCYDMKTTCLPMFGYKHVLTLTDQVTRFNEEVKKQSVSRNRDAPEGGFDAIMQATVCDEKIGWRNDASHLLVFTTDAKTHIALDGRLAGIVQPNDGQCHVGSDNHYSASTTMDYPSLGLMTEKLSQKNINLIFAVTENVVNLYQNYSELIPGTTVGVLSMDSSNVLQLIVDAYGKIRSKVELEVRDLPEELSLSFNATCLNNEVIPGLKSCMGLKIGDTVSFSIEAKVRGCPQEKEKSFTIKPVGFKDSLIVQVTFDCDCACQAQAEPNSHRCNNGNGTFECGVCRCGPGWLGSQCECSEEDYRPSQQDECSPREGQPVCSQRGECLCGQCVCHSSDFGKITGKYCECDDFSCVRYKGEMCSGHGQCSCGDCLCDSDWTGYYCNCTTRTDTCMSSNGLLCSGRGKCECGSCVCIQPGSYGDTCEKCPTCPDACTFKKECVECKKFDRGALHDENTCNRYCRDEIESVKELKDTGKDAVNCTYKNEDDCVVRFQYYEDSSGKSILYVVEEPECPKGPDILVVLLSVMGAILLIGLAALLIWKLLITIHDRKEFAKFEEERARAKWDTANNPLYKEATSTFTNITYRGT

cell-cell adhesion = test: Cell-cell adhesion; assay type: cell-based
tumor cells [1] = test: Apoptosis of tumor cells; assay type: cell-based
Source text: Many cells may undergo programmed cell death which is a genetically mediated form of self destruction. This phenomenon is commonly referred to in the art as apoptosis. Frequently, apoptotic cells may be recognized by changes in their biochemical, morphological and molecular features. Morphological changes include, but are not limited to, cell shape change, cell shrinkage, cell detachment, apoptotic bodies, nuclear fragmentation, nuclear envelope changes and loss of cell surface structures. Biochemical changes may include proteolysis, protein cross linking, DNA denaturation, cell dehydration, intranucleosomal cleavage and a rise in free calcium ions. Such characteristics are easily identifiable by methods well established in the art. Peptides isolated by the disclosed mini-cell display method are tested for their effects on such physiological and biochemical processes.

Fibronectin receptor = Fibronectin receptor (Homo sapiens, UniProt P05556+P08648); test: Fibronectin receptor binding
Sequence of Fibronectin receptor (P08648 42-894 limits assumed): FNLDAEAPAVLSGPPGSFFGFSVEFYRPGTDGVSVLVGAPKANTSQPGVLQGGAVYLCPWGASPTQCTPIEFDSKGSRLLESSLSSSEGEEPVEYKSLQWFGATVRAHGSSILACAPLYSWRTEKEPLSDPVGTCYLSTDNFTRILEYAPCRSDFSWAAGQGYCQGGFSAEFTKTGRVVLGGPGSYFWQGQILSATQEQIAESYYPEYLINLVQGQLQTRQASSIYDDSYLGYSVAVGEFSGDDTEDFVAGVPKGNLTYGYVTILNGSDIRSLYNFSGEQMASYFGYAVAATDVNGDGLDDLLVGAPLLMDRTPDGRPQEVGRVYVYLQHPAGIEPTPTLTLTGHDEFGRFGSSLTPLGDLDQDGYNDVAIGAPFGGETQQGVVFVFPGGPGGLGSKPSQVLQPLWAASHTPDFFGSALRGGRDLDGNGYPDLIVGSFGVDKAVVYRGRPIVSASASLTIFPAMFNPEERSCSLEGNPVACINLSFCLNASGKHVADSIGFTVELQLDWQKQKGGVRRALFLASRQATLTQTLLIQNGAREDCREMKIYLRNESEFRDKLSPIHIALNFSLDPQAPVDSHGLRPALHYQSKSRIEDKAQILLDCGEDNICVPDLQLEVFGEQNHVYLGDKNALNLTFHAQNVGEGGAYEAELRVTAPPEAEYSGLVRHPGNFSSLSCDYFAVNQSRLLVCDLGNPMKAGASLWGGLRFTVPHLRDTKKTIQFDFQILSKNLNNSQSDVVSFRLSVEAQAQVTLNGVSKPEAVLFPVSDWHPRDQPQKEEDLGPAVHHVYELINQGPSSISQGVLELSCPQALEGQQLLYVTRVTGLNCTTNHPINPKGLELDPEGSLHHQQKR
Sequence of Fibronectin receptor (P08648 895-1049 limits assumed): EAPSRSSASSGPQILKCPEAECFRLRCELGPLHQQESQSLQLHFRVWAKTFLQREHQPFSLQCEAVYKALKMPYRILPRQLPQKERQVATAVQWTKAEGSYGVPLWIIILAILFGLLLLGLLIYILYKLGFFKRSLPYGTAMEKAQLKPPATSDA
Sequence of Fibronectin receptor (P05556 21-798): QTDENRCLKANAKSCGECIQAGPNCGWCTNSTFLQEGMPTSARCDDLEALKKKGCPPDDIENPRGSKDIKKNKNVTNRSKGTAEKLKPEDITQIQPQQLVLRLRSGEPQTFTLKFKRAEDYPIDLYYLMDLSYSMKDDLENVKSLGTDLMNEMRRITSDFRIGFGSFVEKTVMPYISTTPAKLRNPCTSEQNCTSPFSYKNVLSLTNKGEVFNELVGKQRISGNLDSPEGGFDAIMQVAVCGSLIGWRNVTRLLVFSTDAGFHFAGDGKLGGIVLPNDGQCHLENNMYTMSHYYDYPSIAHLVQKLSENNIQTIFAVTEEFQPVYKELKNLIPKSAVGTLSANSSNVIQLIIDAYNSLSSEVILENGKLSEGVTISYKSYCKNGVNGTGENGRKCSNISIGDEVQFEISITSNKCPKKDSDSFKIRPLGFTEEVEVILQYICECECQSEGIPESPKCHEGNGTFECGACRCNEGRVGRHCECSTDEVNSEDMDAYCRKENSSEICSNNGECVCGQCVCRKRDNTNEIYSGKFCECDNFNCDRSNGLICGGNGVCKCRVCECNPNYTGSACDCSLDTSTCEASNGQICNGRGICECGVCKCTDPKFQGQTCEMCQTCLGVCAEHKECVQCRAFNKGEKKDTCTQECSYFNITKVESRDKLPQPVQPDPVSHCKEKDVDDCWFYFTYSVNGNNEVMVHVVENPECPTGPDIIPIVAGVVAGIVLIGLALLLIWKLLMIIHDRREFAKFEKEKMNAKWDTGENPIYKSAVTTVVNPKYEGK

collagenase = test: Collagenase induction; assay type: cell-based
tumor cells [2] = test: Homotypic aggregation of tumor cells; assay type: cell-based
cell entry of peptides = test: Cell entry of peptides; assay type: cell-based
β integrin = β integrin binding
fibroblast = test: Fibroblast attachment; assay type: cell-based
[3] = system: neutrophils, endothelium, fibrosarcomas melanoma; test: Attachment of neutrophils, endothelium, fibrosarcomas, melanoma; assay type: cell-based
alphavbetax = test: Cell attachment, alphavbetax specific; assay type: cell-based

FUNCTIONAL ACTIVITY: Inhibits heparin binding (Heparin binding): Inhibits heparin binding
Substance: DSVVYGLRSK (Inhibitor of heparin binding.)

Substance: TPTVRGAAGSGNQN (Anti-angiogenic)
FUNCTIONAL ACTIVITY: Anti-angiogenic (angiogenesis): Anti-angiogenic

Substance: HKFVHWKKPVLPSQNNQ (Inhibits melanoma cell attachment.)
FUNCTIONAL ACTIVITY: Inhibits melanoma cell attachment (melanoma cell): Inhibits melanoma cell

FUNCTIONAL ACTIVITY: Inhibits alpha4 integrin binding (alpha4 integrin): Inhibits alpha4 integrin
Substance: LDSAS: bioactive peptide isolated by minicell display (Inhibits alpha 4 integrin binding.)

FUNCTIONAL ACTIVITY: Inhibits alpha4 integrin binding (alpha4 integrin): Inhibits alpha4 integrin
Substance: WTGGDDSGSPSSPS (Inhibits alpha 4 integrin binding.)

Substance: SDQDNNGKGSHES (Endothelial cell attachment.)
FUNCTIONAL ACTIVITY: Endothelial cell attachment (Endothelial cell): Endothelial cell attachment

FUNCTIONAL ACTIVITY: β3 attachment (β3): β3 attachment
Substance: QSWKKQGSPSSPQRRSKGGRKP (beta 3 attachment.)

FUNCTIONAL ACTIVITY: β3 attachment (β3): β3 attachment
Substance: HDRKEFAKFEEEERARA (beta 3 attachment.)

FUNCTIONAL ACTIVITY: Inhibits alpha4 integrin binding (alpha4 integrin): Inhibits alpha4 integrin
Substance: LDSPPAALS (Inhibits alpha 4 integrin binding.)

FUNCTIONAL ACTIVITY: Inhibits alpha4 integrin binding (alpha4 integrin): Inhibits alpha4 integrin
Substance: EPEESDVGGAADYP (Inhibits alpha 4 integrin binding.)

FUNCTIONAL ACTIVITY: Inhibits heparin binding (Heparin binding): Inhibits heparin binding
Substance: DSVAYGLKSK (Inhibitor of heparin binding.)

Substance: RRSRSSTGKKQKSSQSRKTA (Anti-adhesion (cell-cell))
FUNCTIONAL ACTIVITY: Anti-adhesion (cell-cell) (cell-cell adhesion): Anti-adhesion (cell-cell)

FUNCTIONAL ACTIVITY: Inhibits heparin binding (Heparin binding): Inhibits heparin binding
Substance: DSVAYGLKSRSK (Inhibitor of heparin binding.)

Substance: KRSR: bioactive peptide isolated by minicell display (Apoptotic to tumor cells.)
FUNCTIONAL ACTIVITY: Apoptotic to tumor cells (tumor cells [1]): Apoptotic to tumor cells

Substance: ATWLPPR (Anti-angiogenic.)
FUNCTIONAL ACTIVITY: Anti-angiogenic (angiogenesis): Anti-angiogenic

Substance: QVGLKPLV (Anti-angiogenic.)
FUNCTIONAL ACTIVITY: Anti-angiogenic (angiogenesis): Anti-angiogenic

Substance: KKAKKSRRS (Anti-adhesion (cell-cell).)
FUNCTIONAL ACTIVITY: Anti-adhesion (cell-cell) (cell-cell adhesion): Anti-adhesion (cell-cell)

Substance: LVPSSKGRGDYLAQSQP (Fibronectin receptor binding collagenase induction.)
FUNCTIONAL ACTIVITY: Fibronectin receptor binding (Fibronectin receptor): Fibronectin receptor binding
FUNCTIONAL ACTIVITY: collagenase induction (collagenase): collagenase induction

Substance: HGRFILPWWYAFSPS (Inhibits homotypic aggregation of tumor cells.)
FUNCTIONAL ACTIVITY: Inhibit homotypic aggregation of tumor cells (tumor cells [2]): Inhibit homotypic aggregation

Substance: CVVVLVL (Promotes cell entry of peptides.)
FUNCTIONAL ACTIVITY: Promotes cell entry of peptides (cell entry of peptides): Promotes cell entry of peptides

Substance: SDQDQDGDGHQDS (Endothelial cell attachment.)
FUNCTIONAL ACTIVITY: Endothelial cell attachment (Endothelial cell): Endothelial cell attachment

FUNCTIONAL ACTIVITY: β integrin binding (β integrin): β integrin binding
Substance: TPVVPTVDTYDGRGDSLAY (beta integrin binding.)

FUNCTIONAL ACTIVITY: β3 attachment (β3): β3 attachment
Substance: DKKELAKFQAERSAAS (beta 3 attachment.)

FUNCTIONAL ACTIVITY: Inhibits alpha4 integrin binding (alpha4 integrin): Inhibits alpha4 integrin
Substance: AADVESPS (Inhibits alpha 4 integrin binding.)

FUNCTIONAL ACTIVITY: β3 attachment (β3): β3 attachment
Substance: HDRREFAKFQSERSRA (beta 3 attachment.)

Substance: DRYLKFRPV (Inhibits melanoma cell attachment.)
FUNCTIONAL ACTIVITY: Inhibits melanoma cell attachment (melanoma cell): Inhibits melanoma cell

FUNCTIONAL ACTIVITY: Inhibits alpha4 integrin binding (alpha4 integrin): Inhibits alpha4 integrin
Substance: SDV: bioactive peptide isolated by minicell display (Inhibits alpha 4 integrin binding.)

Substance: PNGRGESLAY (Inhibits fibroblast attachment, inhibits collagenase induction.)
FUNCTIONAL ACTIVITY: Inhibits fibroblast attachment (fibroblast): Inhibits fibroblast attachment,
FUNCTIONAL ACTIVITY: inhibits collagenase induction (collagenase): inhibits collagenase induction

FUNCTIONAL ACTIVITY: Inhibits alpha4 integrin binding (alpha4 integrin): Inhibits alpha4 integrin
Substance: QESPSGTDLLVAGSSP (Inhibits alpha 4 integrin binding.)

Substance: KGMNYTVR (Inhibits neutrophils, endothelium, fibro- sarcomas, melanoma attachment.)
FUNCTIONAL ACTIVITY: Inhibits, neutrophils, endothelium, fibrosarcomas melanoma attachment [3]: Inhibits, neutrophils,

FUNCTIONAL ACTIVITY: β3 attachment (β3): β3 attachment
Substance: HDRKEVAKFEAERSKA (beta 3 attachment.)

Substance: DGGRGDSLGWYRRGRGGARRSKAKKAAAKNNQKSEPLIGRKKT (Apoptotic to tumor cells.)
FUNCTIONAL ACTIVITY: Apoptotic to tumor cells (tumor cells [1]): Apoptotic to tumor cells

Substance: GRGDNPS (Fibronectin receptor binding collagenase induction.)
FUNCTIONAL ACTIVITY: Fibronectin receptor binding (Fibronectin receptor): Fibronectin receptor binding
FUNCTIONAL ACTIVITY: collagenase induction (collagenase): collagenase induction

Substance: TPFIPTESANDGRGDSVAW (Cell attachment/ alpha v beta x specific.)
FUNCTIONAL ACTIVITY: Cell attachment/alphavbetax specific (alphavbetax): Cell attachment/a1phavbetax

Substance: KKGKKSKRS (Anti-adhesion (cell-cell).)
FUNCTIONAL ACTIVITY: Anti-adhesion (cell-cell) (cell-cell adhesion): Anti-adhesion (cell-cell)
